Where two headings read alike, the source gives them in different places.
Key:
SNU-C1 = experiment: cells; format: cell-based
[1] = tested on: HCT116 cells treated with a GSK3β inhibitor; experiment: cells; format: cell-based
SW480 = experiment: cells; format: cell-based
HT-29 = experiment: cells; format: cell-based
[2] = tested on: endothelial tube formation in co-cultures of ECFCs and ADSCs treated with VEGF; experiment: cells; format: cell-based, human
RKO = experiment: cells; format: cell-based
[3] = tested on: ECFC/ADSC co-culture cell nuclei number
DLD-1 = experiment: cells; format: cell-based
HCT116 = experiment: cells; format: cell-based
Colo320 = experiment: cells; format: cell-based
[4] = assay number 26, GSK3b inhibitor pretreated

| SMILES | Basal_Viability ATP SNU-C1 IC50/EC50 (SNU-C1; assay number 30, basal) [µM] | GSK3b inh pretreated_Viability ATP HCT116 IC50/EC50 [1, 4] [µM] | Basal_Viability ATP SW480 IC50/EC50 (SW480; assay number 24, basal) [µM] | Basal_Viability ATP HT-29 IC50/EC50 (HT-29; assay number 28, basal) [µM] | VEGF_ADSC\ECFC Angio CD31 TubeArea IC50/EC50 [2] [µM] | Basal_Viability ATP RKO IC50/EC50 (RKO; assay number 29, basal) [µM] | VEGF_ADSC\ECFC Angio Hoechst NucArea IC50/EC50 [3] [µM] | Basal_Viability ATP DLD-1 IC50/EC50 (DLD-1; assay number 23, basal) [µM] | Basal_Viability ATP HCT116 IC50/EC50 (HCT116; assay number 25, basal) [µM] | Basal_Viability ATP Colo 320 IC50/EC50 (Colo320; assay number 27, basal) [µM] | IC50/EC50, VEGF_ADSC\ECFC Angio CD31 TubeArea (assay number 2) [2] [µM] | IC50/EC50, VEGF_ADSC\ECFC Angio Hoechst NucArea (assay number 3) [3] [µM] | also measured |
| --- | --- | --- | --- | --- | --- | --- | --- | --- | --- | --- | --- | --- | --- |
| CCC1Nc2cc(Cl)c(S(N)(=O)=O)cc2S(=O)(=O)N1 (stereo not drawn) [NCGC00160540-03] | > 20 | > 20 | > 6.6667 | > 20 | > 10 | > 20 | > 10 | > 20 | > 20 | > 20 |  |  |  |
| O=C1c2ccccc2C(=O)C1C(=O)C(c1ccccc1)c1ccccc1 [NCGC00160553-03] |  |  |  |  |  |  |  |  |  |  | > 10 | > 10 | IC50/EC50, Basal_Viability ATP SNU-C1 (assay number 30) (SNU-C1): 4.0068 µM; IC50/EC50, GSK3b inh pretreated_Viability ATP HCT116 (assay number 26) [1]: 0.5674 µM; IC50/EC50, Basal_Viability ATP SW480 (assay number 24) (SW480): 0.5361 µM; IC50/EC50, Basal_Viability ATP HT-29 (assay number 28) (HT-29): 4.4845 µM; IC50/EC50, Basal_Viability ATP RKO (assay number 29) (RKO): 1.5932 µM; IC50/EC50, Basal_Viability ATP DLD-1 (assay number 23) (DLD-1): 1.326 µM; IC50/EC50, Basal_Viability ATP HCT116 (assay number 25) (HCT116): 0.5307 µM; IC50/EC50, Basal_Viability ATP Colo 320 (assay number 27) (Colo320): 0.6211 µM |
| CCCCCCOC(=O)c1cccnc1 [NCGC00160591-02] |  |  |  |  | > 10 |  | > 10 |  |  |  |  |  | Basal_Viability ATP SNU-C1 IC50/EC50 (SNU-C1; assay number 30, concentration response): > 20 µM; GSK3b inh pretreated_Viability ATP HCT116 IC50/EC50 ([1]; assay number 26, GSK3b inhibitor pretreated, concentration response): > 20 µM; Basal_Viability ATP SW480 IC50/EC50 (SW480; assay number 24, concentration response): > 20 µM; Basal_Viability ATP HT-29 IC50/EC50 (HT-29; assay number 28, concentration response): > 20 µM; Basal_Viability ATP RKO IC50/EC50 (RKO; assay number 29, concentration response): > 20 µM; Basal_Viability ATP DLD-1 IC50/EC50 (DLD-1; assay number 23, concentration response): > 20 µM; Basal_Viability ATP HCT116 IC50/EC50 (HCT116; assay number 25, basal, concentration response): > 20 µM; Basal_Viability ATP Colo 320 IC50/EC50 (Colo320; assay number 27, concentration response): > 20 µM |
| CCC(C(=O)OCCOCCN(CC)CC)c1ccccc1.O=C(O)CC(O)(CC(=O)O)C(=O)O (stereo not drawn) [NCGC00160645-02] | > 20 | > 20 | > 20 | > 20 | > 10 | > 20 | > 10 | > 20 | > 20 | > 20 |  |  |  |
| CN1CCN(c2cc3c(nn2)Oc2ccccc2N3C)CC1 [NCGC00160646-02] | > 20 | > 20 | > 20 | > 20 | > 10 | > 20 | > 10 | > 20 | > 20 | > 20 |  |  |  |
| O=[N+]([O-])c1cccc(S(=O)(=O)NCCNS(=O)(=O)c2cccc([N+](=O)[O-])c2)c1 [NCGC00160679-02] | > 20 | > 20 | > 20 | > 20 | > 10 | > 20 | > 10 | > 20 | > 20 | > 20 |  |  |  |
| CSc1ccc(/C=C2/C(C)=C(CC(=O)O)c3cc(F)ccc32)cc1 [NCGC00161601-02] |  |  |  |  |  |  |  |  |  |  | > 10 | > 10 | IC50/EC50, Basal_Viability ATP SNU-C1 (assay number 30) (SNU-C1; basal): 11.9864 µM; IC50/EC50, GSK3b inh pretreated_Viability ATP HCT116 (assay number 26) ([1]; GSK3b inh pretreated): > 20 µM; IC50/EC50, Basal_Viability ATP SW480 (assay number 24) (SW480; basal): 19.964 µM; IC50/EC50, Basal_Viability ATP HT-29 (assay number 28) (HT-29; basal): > 20 µM; IC50/EC50, Basal_Viability ATP RKO (assay number 29) (RKO; basal): > 20 µM; IC50/EC50, Basal_Viability ATP DLD-1 (assay number 23) (DLD-1; basal): > 20 µM; IC50/EC50, Basal_Viability ATP HCT116 (assay number 25) (HCT116; basal): > 20 µM; IC50/EC50, Basal_Viability ATP Colo 320 (assay number 27) (Colo320; basal): > 20 µM |
| C=CCN1CC[C@]23CCCC[C@H]2[C@H]1Cc1ccc(O)cc13 [NCGC00162247-06] |  |  |  |  |  |  |  |  |  |  | > 10 | > 10 | IC50/EC50, Basal_Viability ATP SNU-C1 (assay number 30) (SNU-C1; basal): > 20 µM; IC50/EC50, GSK3b inh pretreated_Viability ATP HCT116 (assay number 26) ([1]; GSK3b inh pretreated): > 20 µM; IC50/EC50, Basal_Viability ATP SW480 (assay number 24) (SW480; basal): > 20 µM; IC50/EC50, Basal_Viability ATP HT-29 (assay number 28) (HT-29; basal): > 20 µM; IC50/EC50, Basal_Viability ATP RKO (assay number 29) (RKO; basal): > 20 µM; IC50/EC50, Basal_Viability ATP DLD-1 (assay number 23) (DLD-1; basal): > 20 µM; IC50/EC50, Basal_Viability ATP HCT116 (assay number 25) (HCT116; basal): > 20 µM; IC50/EC50, Basal_Viability ATP Colo 320 (assay number 27) (Colo320; basal): > 20 µM |
| COP(=S)(OC)Oc1ccc(Sc2ccc(OP(=S)(OC)OC)cc2)cc1 [NCGC00163910-05] |  |  |  |  |  |  |  |  |  |  |  |  | IC50 (SNU-C1; assay number 30, basal, read-out: Basal_Viability ATP SNU-C1 summarized IC50): 3.03 µM; IC50 ([1]; assay number 26, GSK3b inhibitor pretreated, read-out: GSK3b inh pretreated_Viability ATP HCT116 summarized IC50): > 20 µM; IC50 (SW480; assay number 24, basal, read-out: Basal_Viability ATP SW480 summarized IC50): 0.0118 µM; IC50 (HT-29; assay number 28, basal, read-out: Basal_Viability ATP HT-29 summarized IC50): > 20 µM; IC50 ([2]; read-out: VEGF_ADSC\ECFC Angio CD31 TubeArea summarized IC50): > 10 µM; IC50 (RKO; assay number 29, basal, read-out: Basal_Viability ATP RKO summarized IC50): 12.1 µM; IC50 ([3]; read-out: VEGF_ADSC\ECFC Angio Hoechst NucArea summarized IC50): > 10 µM; IC50 (DLD-1; assay number 23, basal, read-out: Basal_Viability ATP DLD-1 summarized IC50): > 20 µM; IC50 (HCT116; assay number 25, basal, read-out: Basal_Viability ATP HCT116 summarized IC50): > 20 µM; IC50 (Colo320; assay number 27, basal, read-out: Basal_Viability ATP Colo 320 summarized IC50): > 20 µM |

Reference: PMC4503722, “Novel Phenotypic Outcomes Identified for a Public Collection of Approved Drugs from a Publicly Accessible Panel of Assays” (PLoS ONE, 2015)
